Patent US20080132484A1, “Method for Identifying Inhibitors Using a Homology Model of Polo-Like Kinase 1” (CYCLACEL LIMITED, priority 2003, published 2008)
Entries after “also recorded” stand apart in the source; their conditions may differ. Like-named read-outs stand apart in the source and are kept apart here. Values belong to the molecule of their own block, whether it stands above or below them.

Columns and labels:
[1] = biological target: T1, PLK1 (Homo sapiens, UniProt P53350); assay: PLK1 kinase assay (CDC25C phosphorylation, [γ-32P]-ATP); assay type: biochemical; settings: for inhibition of PLK1 function: at concentrations up to 0.2 mM; for inhibition of PLK1: even at concentrations as high as 1 mM
T1 construct: The PLK1 ORF was cloned into pSSP1 such that the resulting PLK1 translation product would have a 19 amino acid N-terminal tag; made in house; host or cells: Sf9 insect cells (baculovirus)
T1 sequence (P53350 whole entry): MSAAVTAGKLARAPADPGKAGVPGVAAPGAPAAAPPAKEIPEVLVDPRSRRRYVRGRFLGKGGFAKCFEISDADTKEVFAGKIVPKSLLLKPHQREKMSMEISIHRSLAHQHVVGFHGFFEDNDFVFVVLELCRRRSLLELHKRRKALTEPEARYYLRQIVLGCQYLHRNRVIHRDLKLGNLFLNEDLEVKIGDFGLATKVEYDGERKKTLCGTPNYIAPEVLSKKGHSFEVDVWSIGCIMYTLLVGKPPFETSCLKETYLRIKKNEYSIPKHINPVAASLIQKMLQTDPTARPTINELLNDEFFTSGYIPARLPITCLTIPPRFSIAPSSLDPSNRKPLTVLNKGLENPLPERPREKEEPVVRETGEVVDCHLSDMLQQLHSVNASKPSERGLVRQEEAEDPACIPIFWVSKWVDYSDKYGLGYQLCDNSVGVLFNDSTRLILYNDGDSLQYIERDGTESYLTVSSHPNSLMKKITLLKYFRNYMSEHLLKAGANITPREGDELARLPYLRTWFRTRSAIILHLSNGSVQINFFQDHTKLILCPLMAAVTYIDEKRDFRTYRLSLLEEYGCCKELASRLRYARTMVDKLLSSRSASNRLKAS
Experimental: PLK1 kinase activity was assayed using human CDC25C phosphatase as a substrate. The assays were carried out using 96-well microtitre plates by incubating CDC25C (2 μg/well) with 1 μg/well of purified human recombinant PLK1 and varying concentrations of the candidate compound in a total volume of […] of 20 mM Tris/HCl buffer pH 7.5, supplemented with 25 mM β-glycerophosphate, 5 mM EGTA, 1 mM DTT, and 1 mM NaVO3. Reaction was initiated by the addition of 100 μM ATP and 0.5 μCi of [γ-^32P]-ATP. The reaction mixture was incubated at 30° C. for 1 h, then stopped with 75 mM aq orthophosphoric acid, transferred onto a 96-well P81 filter plate (Whatman), dried, and the extent of CDC25C phosphorylation was assessed by scintillation counting using a Packard TopCount plate reader.
Adenosine, N-ethyhnaleimide, iodoacetamide, and thimerosal were obtained from Sigma Chemical Co. 2′-Thioadenosine was obtained from Calbiochem. […] All compounds were made up as 10 mM stocks in neat dimethylsulfoxide and fresh dilutions to the desired concentrations were made in assay buffer prior to the assay. The candidate compounds were incubated with the enzyme in the kinase assay buffer for the duration of the assay, usually 1 hour at 30° C. […] For each compound duplicate samples, one of which contained dithiothreitol (DTT) at 1 mM final concentration, were assayed.

[2] = biological target: T2, Human recombinant CKII (Homo sapiens, UniProt P68400); assay: Casein Kinase II (CKII) assay; assay type: biochemical; settings: at concentrations up to 0.2 mM
T2 construct: purchased New England Biolabs
T2 sequence (P68400 whole entry): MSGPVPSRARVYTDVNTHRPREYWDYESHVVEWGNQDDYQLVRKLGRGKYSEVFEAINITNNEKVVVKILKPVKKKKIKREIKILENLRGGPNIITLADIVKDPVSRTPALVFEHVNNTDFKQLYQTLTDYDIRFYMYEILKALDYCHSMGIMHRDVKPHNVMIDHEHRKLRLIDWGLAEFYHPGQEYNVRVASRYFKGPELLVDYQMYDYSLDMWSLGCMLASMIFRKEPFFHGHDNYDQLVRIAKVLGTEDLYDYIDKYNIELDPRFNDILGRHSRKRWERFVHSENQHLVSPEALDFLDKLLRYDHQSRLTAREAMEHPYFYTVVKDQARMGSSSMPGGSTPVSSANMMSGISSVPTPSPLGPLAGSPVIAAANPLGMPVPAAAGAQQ
T2 sequence (P67870 whole entry partner): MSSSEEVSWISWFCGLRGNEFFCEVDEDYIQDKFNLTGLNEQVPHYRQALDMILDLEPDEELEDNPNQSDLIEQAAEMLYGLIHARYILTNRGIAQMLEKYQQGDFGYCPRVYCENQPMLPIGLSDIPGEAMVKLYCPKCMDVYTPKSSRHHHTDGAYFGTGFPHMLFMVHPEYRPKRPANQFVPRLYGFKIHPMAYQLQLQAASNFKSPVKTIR
Experimental: Reaction was initiated by the addition of 100 μM ATP and 0.25 μCi of [γ-^32P]-ATP. The reaction mixture was incubated at 30° C. for 15 minutes, then stopped with 75 mM aq orthophosphoric acid, transferred onto a 96-well P81 filter plate (Whatman), dried, and the extent of peptide phosphorylation was assessed by scintillation counting using a Packard TopCount plate reader.

[3] = biological target: T1, PLK1; assay: Kinetic analysis of PLK1 inhibition (ATP dependence); assay type: biochemical
[4] = biological target: PKA (Homo sapiens, UniProt P17612); settings: Table 14, published values; cited from earlier work
[5] = biological target: CDK2 (Homo sapiens, UniProt P24941); assay: CDK2 inhibition; assay type: biochemical; settings: Table 12
[6] = in the absence of dithiothreitol, read-out: IC50 (μM) − DTT
[7] = in the presence of dithiothreitol (1 mM), read-out: IC50 (μM) + DTT
[8] = Table 14, read-out: Plk1 (IC50)
[9] = read-out: IC50 with respect to PLK1
[10] = Kinase inhibition, flavonoid compounds, read-out: Plk1 IC50

inhibition of PLK1 function [1]: did | IC50 [1, 6]: 120 µM | IC50 [1, 7]: > 200 µM | inhibition of CKII enzymatic activity [2]: No significant inhibition
Molecule: Nc1ncnc2c1ncn2[C@@H]1O[C@H](CO)[C@@H](O)[C@H]1S [2′-Thioadenosine]
mode of PLK1 inhibition with respect to ATP [3]: none of these compounds were classical competitive inhibitors

IC50 [1, 8]: > 500 µM
Molecule: Cc1ncc2ccccc2c1C#N [4-Cyano-3-methylisoquinoline]
inhibition of PLK1 [1]: none of these compounds caused any inhibition | IC50 [4]: 0.03 µM

IC50 [1, 9]: 4 µM
Molecule: CNc1nc(C)c(-c2ccnc(Nc3ccc(O)cc3)n2)s1 [4-[4-(4-methyl-2-methylamino-thiazol-5-yl)-pyrimidin-2-ylamino]-phenol]

potency relative to 2′-thioadenosine on PLK1 [1]: about 3 fold | inhibition of PLK1 function [1]: did | IC50 [1, 6]: 39 µM | IC50 [1, 7]: > 200 µM | inhibition of CKII enzymatic activity [2]: No significant inhibition
Molecule: Nc1ncnc2c1ncn2[C@@H]1O[C@H](CS)[C@@H](O)[C@H]1O [5′-Thioadenosine, 5′-Deoxy-5′-thioadenosine]
mode of PLK1 inhibition with respect to ATP ([3]; listed as 5-′thioadenosine): none of these compounds were classical competitive inhibitors | mode of PLK1 inhibition with respect to ATP ([3]; listed as 5′-thioadenosine): dependent on ATP concentration but not competitive with ATP

inhibition of PLK1 function [1]: did not inhibit | IC50 [1, 6]: > 200 µM | IC50 [1, 7]: > 200 µM | inhibition of CKII enzymatic activity [2]: No significant inhibition
Molecule: Nc1ncnc2c1ncn2[C@@H]1O[C@H](CO)[C@@H](O)[C@H]1O [Adenosine]
mode of PLK1 inhibition with respect to ATP [3]: none of these compounds were classical competitive inhibitors

PLK1 inhibition, result in words [1]: no detectable inhibition | IC50 [1, 8]: > 200 µM
Molecule: O=C(N[C@@H]1CNCCC[C@H]1OC(=O)c1cc(O)c(C(=O)c2c(O)cccc2C(=O)O)c(O)c1)c1ccc(O)cc1 [Balanol]

IC50 [1, 10]: > 100 µM
Molecule: O=c1c(O)c(-c2ccccc2O)oc2cc(O)cc(O)c12 [Datescefin]

PLK1 inhibition, result in words [1]: inactive
Molecule: O=c1c(O)c(-c2ccccc2O)oc2cc(O)cc(O)c12 [Datescetin]

IC50 [1, 10]: > 100 µM
Molecule: O=c1c(O)c(-c2ccccc2)oc2cc(O)cc(O)c12 [Galangin]

IC50 [1, 8]: > 500 µM
Molecule: Cl.NCCNS(=O)(=O)c1cccc2c(Cl)cccc12 [Inhibitor A3]
inhibition of PLK1 [1]: none of these compounds caused any inhibition | IC50 [4]: 11 µM

Molecule: O=S(=O)(NCCNC/C=C/c1ccc(Br)cc1)c1cccc2cnccc12 [Inhibitor H89]
inhibition of PLK1 [1]: none of these compounds caused any inhibition

Molecule: NC(=O)CI [Iodoacetamide]
PLK1 inhibition, result in words [1]: to some extent | IC50 ([1]; IC50 (μM) + DTT, in the presence of dithiothreitol (1 mM)): > 200 µM | IC50 ([1]; IC50 (μM) − DTT, in the absence of dithiothreitol): 83 µM | inhibition of CKII enzymatic activity [2]: No significant inhibition

IC50 [1, 8]: > 500 µM
Molecule: CCCCCCOC(=O)[C@]1(O)C[C@@H]2O[C@@]1(C)n1c3ccccc3c3c4c(c5c6ccccc6n2c5c31)C(=O)NC4 [KT5720]
inhibition of PLK1 [1]: none of these compounds caused any inhibition | IC50 [4]: 0.056 µM

IC50 [1, 10]: > 100 µM
Molecule: O=c1c(O)c(-c2ccc(O)cc2)oc2cc(O)cc(O)c12 [Kaempferol]

IC50 [1, 10]: > 100 µM
Molecule: O=c1cc(-c2ccc(O)c(O)c2)oc2cc(O)cc(O)c12 [Luteolin]

Molecule: O=c1c(O)c(-c2cc(O)c(O)c(O)c2)oc2cc(O)cc(O)c12 [Myricetin]
PLK1 inhibition, result in words [1]: lack of inhibition | IC50 [1, 10]: > 100 µM | IC50 [1, 9]: > 100 µM

Molecule: CCN1C(=O)C=CC1=O [N-ethylmaleimide]
PLK1 inhibition, result in words [1]: to some extent | IC50 [1, 6]: 55 µM | IC50 [1, 7]: > 200 µM | inhibition of CKII enzymatic activity [2]: No significant inhibition

Molecule: C[CH2][Hg][S]c1ccccc1C(=O)[O-].[Na+] [Thimerosal]
PLK1 inhibition, result in words [1]: to some extent | IC50 [1, 6]: 22 µM | IC50 [1, 7]: > 200 µM | inhibition of CKII enzymatic activity [2]: No significant inhibition | mode of PLK1 inhibition with respect to ATP [3]: none of these compounds were classical competitive inhibitors

Molecule: COC[C@H]1OC(=O)c2coc3c2[C@@]1(C)C1=C(C3=O)[C@@H]2CCC(=O)[C@@]2(C)C[C@H]1OC(C)=O [Wortmannin]
IC50 [5]: > 10 µM | PLK1 inhibition, result in words [1]: very potent inhibitor | mode of PLK1 inhibition with respect to ATP [3]: totally independent of ATP; also recorded: completely ATP-independent

PLK1 inhibition, result in words [1]: inactivity | IC50 [1, 10]: > 100 µM
Molecule: O=c1c(-c2ccc(O)cc2)coc2cc(O)ccc12 [daidzein]

PLK1 inhibition, result in words [1]: inactivity | IC50 [1, 10]: > 100 µM
Molecule: O=c1c(O)c(-c2ccc(O)c(O)c2)oc2cc(O)ccc12 [fisetin]

PLK1 inhibition, result in words [1]: inactivity
Molecule: O=c1c(O)c(-c2ccccc2)oc2cc(O)cc(O)c12 [gangolin]

PLK1 inhibition, result in words [1]: inactivity | IC50 [1, 10]: > 100 µM
Molecule: COc1ccc(-c2oc3cc(O)cc(O)c3c(=O)c2O)cc1 [kaempferide]

PLK1 inhibition, result in words [1]: lack of inhibition
Molecule: O=c1c(O)c(-c2ccc(O)cc2)oc2cc(O)cc(O)c12 [kaepmpferol]

PLK1 inhibition, result in words [1]: the most potent in the flavonoid series | IC50 [1, 10]: 12.6 ± 1.4 µM | IC50 [1, 9]: 12 µM
Molecule: O=c1c(O)c(-c2ccc(O)cc2O)oc2cc(O)cc(O)c12 [morin hydrate]

PLK1 inhibition, result in words [1]: weak inhibition | IC50 [1, 10]: 60 µM
Molecule: O=c1c(O)c(-c2cc(O)c(O)c(O)c2)oc2cc(O)ccc12 [robinetin]

PLK1 inhibition, result in words [1]: moderate inhibition | IC50 ([1]; Table 12, read-out: Plk1 IC50): 5 µM | IC50 [1, 8]: 10 µM
Molecule: Purvalanol A
IC50 [4]: > 100 µM
